Where two headings read alike, the source gives them in different places.
Key:
[1] = tested on: HCV replicon cells Huh 9B; assay: HCV replicon assay (luciferase readout); format: cell-based
How it was run: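 Compounds, made up at twice final strength (final DMSO 1%), were added to subgenomic replicon cells one day after plating. Incubation then ran 72 h at 37 °C, 5% CO2, without G418. Replication was quantified as firefly luciferase luminescence in lysed cells, with cytotoxicity assessed on a duplicate clear plate.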

[2] = tested on: HCV replicon cells Huh 9B; format: cell-based

| SMILES | IC50 [1] [nM] | TD50 ([2]; concentration reducing total cell area by 50% relative to DMSO controls, methylene blue, absorbance 620 nm, 72 h incubation) | TD50 [2] |
| --- | --- | --- | --- |
| CCCS(=O)(=O)N1CCN(Cc2ccc(NC(=O)c3ccc(-c4cc(C(=O)Nc5ccc(N6CCOCC6)c(F)c5)ccc4Cl)cc3)cc2)CC1 [Example 264, 6-Chloro-biphenyl-3,4′-dicarboxylic acid 3-[(3-fluoro-4-morpholin-4-yl-phenyl)-amide] 4′-({4-[4-(propane-1-sulfonyl)-piperazin-1-ylmethyl]-phenyl}-amide)] | < 1000 | * (* < 50 μM) | – |
| CS(=O)(=O)N1CCN(Cc2ccc(NC(=O)c3ccc(Cl)c(-c4ccc(C(=O)Nc5ccc(N6CCOCC6)cc5)cc4)c3)cc2)CC1 [Example 265, 6-Chloro-biphenyl-3,4′-dicarboxylic acid 3-{[4-(4-methanesulfonyl-piperazin-1-ylmethyl)-phenyl]-amide} 4′-[(4-morpholin-4-yl-phenyl)-amide]] | < 1000 | – | * (key: * < 50 μM; ** > 50 μM) |

Source: patent US8008303B2, “Biphenyl derivatives and their use in treating hepatitis C” (AstraZeneca AB, priority 2005, dated 2011)
